The numbers were not newly measured in US6943197B2, “Topical administration of pharmacologically active bases in the treatment of inflammatory dermatoses” (priority 2002, dated 2005), which cites them from elsewhere.

Where two headings read alike, the source gives them in different places.

For series [1] the following is noted: for pH of Aqueous Solution (alkalinity in words): no concentration, result in words.
For series [2] the following is noted: forms Ca(OH)2.

As to `N.N.O=P(O)(O)O` [Ammonium phosphate, dibasic], the “pH of Aqueous Solution” value in series [1] (concentration not given) is “˜8”. `[O]=[Ca]` [Calcium oxide]: in series [2], the Solubility in water entry is given as “Soluble in water, Form”. `[O]=[Mg]` [Magnesium oxide]: in series [1] (saturated solution in water), the “pH of Aqueous Solution” value was 10.3. Regarding `O=C([O-])CC(O)(CC(=O)[O-])C(=O)[O-].[K+].[K+].[K+]` [Potassium citrate], in series [1] (concentration not given), the “pH of Aqueous Solution” value is recorded as “˜8.5”.

As to `O=P([O-])([O-])O.[K+].[K+]` [Potassium phosphate, dibasic], the “pH of Aqueous Solution (alkalinity in words)” value in series [1] was “Aqueous solution is slightly”. In the case of `CC(=O)[O-].[Na+]` [Sodium acetate, anhydrous], in series [1] (0.1 N), the “pH of Aqueous Solution” value was “˜8.9 (0.1 N)”. Take `CC(=O)[O-].O.O.O.[Na+]` [Sodium acetate, tribydrate]: the “pH of Aqueous Solution” value in series [1] (0.1 N) is recorded as 8.9 (0.1 N). On to `O=C([O-])[O-].[Na+].[Na+]` [Sodium carbonate anhydrous], for which, in series [1] (concentration not given), the “pH of Aqueous Solution” value is “˜11.6”. Regarding `O=B[O-].[Na+]` [Sodium metaborate], the “pH of Aqueous Solution (alkalinity in words)” value in series [1] is on record as “Strongly alkaline”.

Turning to `O.O.O=P([O-])([O-])O.[Na+].[Na+]` [Sodium phosphate, dibasic, dihydrate], the “pH of Aqueous Solution” value in series [1] (concentration not given) was “˜9.5”.

Regarding `O.O.O.O.O.O.O.O.O.O.O.O.O=P([O-])([O-])O.[Na+].[Na+]` [Sodium phosphate, dibasic, dodecahydrate], the “pH of Aqueous Solution” value in series [1] (concentration not given) is on record as “˜9.5”. Consider `O.O.O.O.O.O.O.O=P([O-])([O-])O.[Na+].[Na+]` [Sodium phosphate, dibasic, heptahydrate], for which, in series [1] (concentration not given), the “pH of Aqueous Solution” value is given as “˜9.5”. For the compound `O=P([O-])([O-])O.[Na+].[Na+]` [Sodium phosphate, dibasic], the “pH of Aqueous Solution” value in series [1] (concentration not given) is on record as “˜9.5”. With `O.O.O.O.O.O.O.O.O.O.O.O.O=P([O-])([O-])[O-].[Na+].[Na+].[Na+]` [Sodium phosphate, tribasic dodecahydrate], the “pH of Aqueous Solution” value in series [1] (1.0% (1%)) is given as 11.9 (1.0%).
